These results are taken from patent publication US7754896B2, “Indol-alanine derivatives as selective S1P4-agonists” (Novartis AG, priority 2004, dated 2010).

In test [1] the target is T1, S1P1 (Homo sapiens, UniProt P21453).
T1 construct: expressed in transfected cells
Kind of test: Calcium mobilization assay, CHO cells expressing S1P1. Format: cell-based. From the text: (§1) Human S1P1 (GenBank™ accession number M31210) and S1P3 (GenBank™ accession number X83864) cDNA containing the myc sequence in front to the human S1P1 and S1P3 sequences are inserted in the pcDNA 3.1 vector. The vectors are sequenced to completion to confirm the correctness of the construct. The human S1P2 (GI: 4090955, TREMBL: 0195136) is cloned by a PCR based method. Lung cDNA (marathon cDNA) is obtained (BD Biosciences Chontech, Palo Alto, Calif. 94303, USA). […] The amplified product of around 1100 bp is analyzed by standard agarose gel-electrophoresis. […]
CHO cells are plated in black Costar plate (96 or 384 well, 50,000 cells or 12,500 cells, respectively) in a MEM with FCS and cultured for 20-24 h at 37° C. in a CO2 incubator. […] After measuring the baseline for 40 sec, the agonist in HBSS is added and the fluorescence is measured at intervals of 2 sec for 3 to 5 min. […]
The compounds mentioned in this application are tested for specificity, e.g. the activity they have in the parental cell line prior transformation with the S1P4 cDNA and for selectivity on CHO cells lines transformed with the S1P1, S1P2, S1P3, and S1P5. […] For example, S1P4 specific and selective compounds may have an EC50 (apparent EC50) measured at S1P4 that is 10×, preferably 100× lower that that measured in wild type CHO cells or In cell expressing any of the other four S1P receptors.
On the technique in general: Calcium assays in cells follow changes in intracellular calcium, usually with a dye or a luminescent sensor.

The target in test [2] is T1, S1P1. Kind of test: GTPγS binding assay, S1P1. Format: biochemical. The following applies: CHO cells expressing S1P1.
Text: as §1, with “USA). Following oligonucleotides are used for the PCR reaction: forward primer CACCATGGGCAGCTTGTACTCGGAGTACCT GM CCC CAA CM GGT CCA G (1 to 45, GenBank™ accession number AF034780) and reverse primer 5′-GATTCAGACCACCGTGTTGCCCTCCAG (1062 to 1039, GenBank™ accession number AF034780), the initiation of the translation (ATG) and the stop codon are underlined.” for “USA).”
Membrane proteins are prepared from wild type CHO-K1 and the CHO cell clones expressing human S1P4. […] The protein concentration is determined using the Bio Rad Protein Assay and human IgG as standard. […]
(GTPγS resists hydrolysis and so accumulates on activated G proteins.)

A word on the EC50: it is the concentration that produces a half-maximal response.

T1 sequence (P21453 whole entry): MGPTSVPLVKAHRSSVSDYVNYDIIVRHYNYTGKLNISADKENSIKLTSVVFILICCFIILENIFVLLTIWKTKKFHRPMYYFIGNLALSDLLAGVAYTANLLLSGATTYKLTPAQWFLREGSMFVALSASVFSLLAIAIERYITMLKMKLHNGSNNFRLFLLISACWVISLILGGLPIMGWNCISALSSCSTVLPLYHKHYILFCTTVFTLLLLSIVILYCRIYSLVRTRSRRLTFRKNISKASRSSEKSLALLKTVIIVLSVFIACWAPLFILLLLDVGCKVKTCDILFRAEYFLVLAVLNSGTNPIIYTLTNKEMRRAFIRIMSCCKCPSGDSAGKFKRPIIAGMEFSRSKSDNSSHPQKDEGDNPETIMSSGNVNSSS

Take `NC(CNC(=O)c1cc2c(-c3ccccc3Cc3ccccc3)cccc2[nH]1)C(=O)O` (centres unmarked) [Example 2]: the half-maximal effective concentration (EC50) in test [1] was > 6 µM; in test [2], > 10 µM.
